The results in this text go back to BindingDB's records for PubMed 7791071 (Rhone-Poulenc Rorer Central Research, 1995).

Several values for one entry are separate records, joined by “and”; a condition that tells them apart may be missing. Identical values can stand only once.

The target in the test is T1, Cholecystokinin (Sus scrofa, UniProt P01356).
T1 sequence (P01356 whole entry): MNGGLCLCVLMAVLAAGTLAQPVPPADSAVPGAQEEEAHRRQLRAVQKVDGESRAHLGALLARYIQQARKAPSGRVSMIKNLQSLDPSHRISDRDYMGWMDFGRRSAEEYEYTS

One may read the Ki as a measure of affinity in units of concentration, obtained from inhibition or displacement. `CSCC[C@H](NC(=O)[C@H](Cc1ccc(OS(=O)(=O)O)cc1)NC(=O)[C@@H](N)CC(=O)O)C(=O)NCC(=O)N[C@@H](Cc1c[nH]c2ccccc12)C(=O)N[C@@H](CCSC)C(=O)N[C@@H](CC(=O)O)C(=O)N[C@@H](Cc1ccccc1)C(N)=O` [(3S)-3-[(2S)-2-[(2S)-2-{2-[(2S)-2-[(2S)-2-[(3S)-3-amino-3-formamidopropanoic acid]-3-[4-(sulfooxy)phenyl]propanamido]-4-(methylsulfanyl)butanamido]acetamido}-3-(1H-indol-3-yl)propanamido]-4-(methylsulfanyl)butanamido]-3-{[(1S)-1-carbamoyl-2-phenylethyl]carbamoyl}propanoic acid]: the Ki was 0.43 nM and 1.1 nM.

In the case of `CC(Cc1c[nH]c2ccccc12)(NC(=O)OC1C2CC3CC(C2)CC1C3)C(=O)NCC(NC(=O)CCC(=O)O)c1ccccc1` (stereo unspecified) [NSC_108186], the Ki was 0.46 nM and 2 nM.

`CSCC[C@H](NC(=O)[C@H](Cc1c[nH]c2ccccc12)NC(=O)CCNC(=O)OC(C)(C)C)C(=O)N[C@@H](CC(=O)O)C(=O)N[C@@H](Cc1ccccc1)C(N)=O` [CAS_5534-95-2]: the Ki is 3.3 nM and 6 nM.

Regarding `CN1C(=O)[C@@H](NC(=O)c2cc3ccccc3[nH]2)N=C(c2ccccc2)c2ccccc21` [1H-Indole-2-carboxylic acid (1-methyl-2-oxo-5-phenyl-2,3-dihydro-1H-benzo[e][1,4]diazepin-3-yl)-amide: 0.1C4H10O. 0.15CH2Cl2], the Ki is 141 nM and 87 nM.

As to `O=C(NC(Cc1c[nH]c2ccccc12)C(=O)O)c1ccc(Cl)cc1` (stereo unspecified), the Ki was more than 10000 nM.

As to `Cc1cccc(NC(=O)N[C@H]2N=C(c3ccccc3)c3ccccc3N(C)C2=O)c1`, the inhibitory constant (Ki) was 7.2 nM and 4.8 nM.
